Test results from article PMC9118553, “In Vivo Bioconcentration of 10 Anionic Surfactants in Rainbow Trout Explained by In Vitro Data on Partitioning and S9 Clearance” (Environmental Science & Technology, 2022).
Several values for one entry are separate records, joined by “and”; a condition that tells them apart may be missing. Identical values can stand only once. Like-named read-outs stand apart in the source and are kept apart here. Marks after values point to notes of the source that are not given here.

Legend:
rainbow trout = assay: In vivo bioconcentration experiment with a mixture of anionic surfactants, flow-through aquaria, 10 °C, pH 7.8; details: for Log BCF: determined with measured concentrations in water; for Concentration in fish: individual fish; for BCF (kinetic): kinetic BCF from measured concentrations in water
Experimental: The bioconcentration of a mixture of 10 anionic surfactants was measured in rainbow trout in water at pH 7.8. […] The experiment was conducted in flow-through aquaria with juvenile rainbow trout at 10 °C. Ethical approval for the experiments was obtained from Stockholms […] (decision 9967-2017). The fish, fish housing, fish handling, and procedure for introducing the mixture of […] chemicals were very similar to our previous study with cationic surfactants;[5] details are provided in Text S1. The experiment consisted of a 4-day exposure phase and a 7-day depuration phase. […] Water samples were collected and fish were sacrificed according to the schedule in Table S4. The water samples were collected just prior to the daily removal of feces from the aquarium. Triplicate samples were taken at each time point. […] The water/methanol mixture was analyzed using liquid chromatography-mass spectrometry (LC-MS)/MS as described below for fish. At each fish sampling, five fish were sacrificed. Following stunning and severance of the spinal cord, the whole fish were placed in a polyethylene bag, weighed, and immediately frozen at -20 °C. The weight of the individual fish at sacrifice was 24.0 ± 5.6 g. Three of the five fish from each time point were prioritized for analysis based on proximity to the median fish weight. Each fish was […] homogenized with an Ultra-turrax dispersing device. […] This mixture was homogenized in a bullet blender for 5 min and then placed in an ultrasound bath at 45 °C for 15 min. Following centrifugation for 15 min@3200 RCF, the supernatant was decanted and the extraction was repeated. The extracts were combined. For instrumental analysis, 5 μL of the fish extract or 60 μL of the water/methanol mixture (water samples) was separated on an Acquity UPLC BEH C18 column fitted with a BEH C18 pre-column and analyzed on a TSQ Quantiva triple quadrupole mass spectrometer. The mobile phase was methanol (10 mM ammonium acetate) and Milli-Q-filtered water (10 mM ammonium acetate) (see Table S5 for the liquid chromatography program). To avoid detergent blank peaks originating from cleaning mobile phase bottles, the methanol was prepared directly in the solvent bottle as delivered and Milli-Q was tapped into an empty methanol bottle. Furthermore, a guard column was fitted between the mobile phase and the autosampler to prevent background contamination from disturbing the analysis. All analytes were quantified against the BEHP internal standard, as it gave better reproducibility. […] The central goal of the analysis was to estimate kU and kT as well as the BCF (=kU/kT) from measurements of surfactant concentration in fish and water samples collected at different time points of the experiment. For the fish, only those time points were included for which CF(measured) was above the limit of quantitation (LOQ) in all three fish (data below the LOQ will have a positive bias; including them would result in a negative bias in kT). In this analysis, there exist two sources of uncertainty: first, uncertainty in the actual concentration in water CW at the time of sample collection and second, variability in the concentration in fish around the (expected) surfactant concentrations in fish assumed to follow model (1). We therefore set up a model in which we considered uncertainty in both water and fish measurements simultaneously by assuming a parametric model for the surfactant concentration in the water over time (either linear or quadratic) and accounted for the uncertainty in the corresponding parameters of the water model during the estimation of kU and kT. This was done in a joint Bayesian model that we estimated via Hamiltonian Monte Carlo. […]

[1] = cited from earlier work; for log DMW, membrane-water distribution ratio: marked * = measured, used for IVIVE, same values as Table 3; for log DMLW: measurement from Droge et al.
[2] = determined using nominal concentrations in water
[3] = from measured concentrations in water, Bayesian estimate, 95% credible interval in brackets
[4] = 95% credible interval in brackets
[5] = measured concentrations in water, simpler estimation method (Text S3), 95% confidence intervals in brackets

BCF (rainbow trout; [2])	Log BCF (rainbow trout)	SMILES	Concentration in fish (rainbow trout; elimination phase, 97 h)	Concentration in fish (rainbow trout; elimination phase, 98 h)	Concentration in fish (rainbow trout; elimination phase, 100 h)	Concentration in fish (rainbow trout; elimination phase, 103 h)	Concentration in fish (rainbow trout; elimination phase, 120 h)	Concentration in fish (rainbow trout; elimination phase, 128 h)	Concentration in fish (rainbow trout; elimination phase, 144 h)	Concentration in fish (rainbow trout; elimination phase, 168 h)	Concentration in fish (rainbow trout; elimination phase, 192 h)	Concentration in fish (rainbow trout; elimination phase, 264 h)	Concentration in fish (rainbow trout; exposure phase, 1 h)	Concentration in fish (rainbow trout; exposure phase, 2 h)	Concentration in fish (rainbow trout; exposure phase, 3 h)	Concentration in fish (rainbow trout; exposure phase, 4 h)	Concentration in fish (rainbow trout; exposure phase, 6 h)	Concentration in fish (rainbow trout; exposure phase, 24 h)	Concentration in fish (rainbow trout; exposure phase, 48 h)	Concentration in fish (rainbow trout; exposure phase, 72 h)	further results
0.137 L kg-1 ww	-0.87 L kg-1 ww	CCCCCCCCCCCS(=O)(=O)O [C11SO3, undecylsulfonate]	5.5 ng g-1 ww and 3.8 ng g-1 ww and 3.2 ng g-1 ww	3.2 ng g-1 ww and 2.8 ng g-1 ww and 30.6 ng g-1 ww	14.1 ng g-1 ww and 2.8 ng g-1 ww and 3.1 ng g-1 ww	2.2 ng g-1 ww and 3.0 ng g-1 ww and 6.7 ng g-1 ww	0.58 ng g-1 ww and 0.87 ng g-1 ww and 0.78 ng g-1 ww	0.53 ng g-1 ww and 0.50 ng g-1 ww and 0.58 ng g-1 ww	0.49 ng g-1 ww and 0.42 ng g-1 ww and 0.53 ng g-1 ww	0.56 ng g-1 ww and 0.41 ng g-1 ww and 0.22 ng g-1 ww	0.10 ng g-1 ww and 0.19 ng g-1 ww (2×)	1.49 ng g-1 ww and 0.23 ng g-1 ww and 0.19 ng g-1 ww	3.2 ng g-1 ww and 1.5 ng g-1 ww and 8.4 ng g-1 ww	2.1 ng g-1 ww and 1.9 ng g-1 ww and 1.4 ng g-1 ww	2.9 ng g-1 ww and 3.6 ng g-1 ww and 3.2 ng g-1 ww	3.5 ng g-1 ww and 13.4 ng g-1 ww and 41 ng g-1 ww	4.7 ng g-1 ww and 5.0 ng g-1 ww and 3.8 ng g-1 ww	5.5 ng g-1 ww and 4.2 ng g-1 ww and 3.8 ng g-1 ww	4.4 ng g-1 ww and 5.1 ng g-1 ww and 3.7 ng g-1 ww	7.2 ng g-1 ww and 5.2 ng g-1 ww and 4.9 ng g-1 ww	Concentration in fish (rainbow trout; exposure phase, 96 h): 8.1 ng g-1 ww and 7.8 ng g-1 ww and 5.3 ng g-1 ww; BCF (steady-state) (rainbow trout; steady-state BCF, plateau 6-96 h, measured concentrations in water, 95% confidence interval in brackets): 0.136 ^d (0.114–0.158) L kg^–1 ww; log DMW, membrane-water distribution ratio [1]: 3.39
1.42 L kg-1 ww	-0.05 L kg-1 ww	CCCCCCCCCCCCOCCOCCOCCOCCOS(=O)(=O)O [C12-EO4-SO4, dodecyltetraethoxysulfate]	35 ng g-1 ww and 26 ng g-1 ww and 27 ng g-1 ww	17.6 ng g-1 ww and 19.9 ng g-1 ww and 15.8 ng g-1 ww	35.9 ng g-1 ww and 14.4 ng g-1 ww and 21 ng g-1 ww	11.6 ng g-1 ww and 16.1 ng g-1 ww and 15.1 ng g-1 ww	7.0 ng g-1 ww and 8.6 ng g-1 ww and 3.1 ng g-1 ww	5.5 ng g-1 ww and 7.5 ng g-1 ww and 4.5 ng g-1 ww	4.7 ng g-1 ww and 5.3 ng g-1 ww and 4.5 ng g-1 ww	4.1 ng g-1 ww and 2.7 ng g-1 ww and 1.8 ng g-1 ww	1.6 ng g-1 ww and 3.6 ng g-1 ww and 1.8 ng g-1 ww	3.3 ng g-1 ww and 2.4 ng g-1 ww and 1.5 ng g-1 ww	4.3 ng g-1 ww and 6.7 ng g-1 ww and 6.6 ng g-1 ww	6.7 ng g-1 ww and 8.9 ng g-1 ww and 6.4 ng g-1 ww	12.1 ng g-1 ww and 10.4 ng g-1 ww and 10.6 ng g-1 ww	14.5 ng g-1 ww and 16.2 ng g-1 ww and 14.2 ng g-1 ww	23 ng g-1 ww and 18.6 ng g-1 ww and 13.5 ng g-1 ww	24 ng g-1 ww and 34 ng g-1 ww and 23 ng g-1 ww	26 ng g-1 ww and 33 ng g-1 ww and 38 ng g-1 ww	30 ng g-1 ww and 39 ng g-1 ww and 35 ng g-1 ww	Elimination rate constant kT (rainbow trout; [2]): 0.114 h⁻¹; Uptake rate constant kU (rainbow trout; [2]): 0.162 L/kg/h; Concentration in fish (rainbow trout; exposure phase, 96 h): 45 ng g-1 ww and 27 ng g-1 ww and 42 ng g-1 ww; Elimination rate constant kT (rainbow trout; [3]): 0.100 (0.083–0.120) h^–1; Uptake rate constant kU (rainbow trout; [3]): 0.090 (0.074–0.109) L kg^–1 ww h^–1; diffusion coefficient (D) in the epithelial membrane of the gills (rainbow trout; in vivo): 2.0 × 10^–8 m h^–1; BCF (kinetic) (rainbow trout; [4]): 0.89 (0.80–1.01) L kg^–1 ww; BCF (rainbow trout; [5]): 0.92 (29) L kg-1 ww; Elimination rate constant kT (rainbow trout; [5]): 0.098 (26) h-1; Uptake rate constant kU (rainbow trout; [5]): 0.090 (12) L kg-1 ww h-1; log DMW, membrane-water distribution ratio [1]: 4.24; log DMLW [1]: 4.24 ^f L kg^–1

SMILES	BCF (rainbow trout; [2])	Log BCF (rainbow trout)	Concentration in fish (rainbow trout; elimination phase, 97 h)	Concentration in fish (rainbow trout; elimination phase, 98 h)	Concentration in fish (rainbow trout; elimination phase, 100 h)	Concentration in fish (rainbow trout; elimination phase, 103 h)	Concentration in fish (rainbow trout; elimination phase, 120 h)	Concentration in fish (rainbow trout; elimination phase, 128 h)	Concentration in fish (rainbow trout; elimination phase, 144 h)	Concentration in fish (rainbow trout; elimination phase, 168 h)	Concentration in fish (rainbow trout; elimination phase, 192 h)	Concentration in fish (rainbow trout; elimination phase, 264 h)	Concentration in fish (rainbow trout; exposure phase, 1 h)	Concentration in fish (rainbow trout; exposure phase, 2 h)	Concentration in fish (rainbow trout; exposure phase, 3 h)	Concentration in fish (rainbow trout; exposure phase, 4 h)	Concentration in fish (rainbow trout; exposure phase, 6 h)	Concentration in fish (rainbow trout; exposure phase, 24 h)	Concentration in fish (rainbow trout; exposure phase, 48 h)	Concentration in fish (rainbow trout; exposure phase, 72 h)	further results
CCCCC(CC)COC(=O)CC(C(=O)OCC(CC)CCCC)S(=O)(=O)O (centres unmarked) [DOSS, bis(2-ethylhexyl)sulfosuccinate]	3.0 L kg-1 ww	0.15 L kg-1 ww	69 ng g-1 ww and 70 ng g-1 ww	25 ng g-1 ww and 34 ng g-1 ww	92 ng g-1 ww and 49 ng g-1 ww and 45 ng g-1 ww	35 ng g-1 ww and 33 ng g-1 ww	14.2 ng g-1 ww and 36 ng g-1 ww and 13.5 ng g-1 ww	15.7 ng g-1 ww and 17.8 ng g-1 ww	4.1 ng g-1 ww and 6.4 ng g-1 ww and 24 ng g-1 ww	2.3 ng g-1 ww and 7.9 ng g-1 ww and 3.0 ng g-1 ww	0.75 ng g-1 ww and 4.2 ng g-1 ww and 0.92 ng g-1 ww	4.5 ng g-1 ww and 2.9 ng g-1 ww and 0.40 ng g-1 ww	10.9 ng g-1 ww and 5.8 ng g-1 ww and 17.8 ng g-1 ww	11.0 ng g-1 ww and 7.5 ng g-1 ww	17.4 ng g-1 ww and 15.2 ng g-1 ww	21 ng g-1 ww and 42 ng g-1 ww and 106 ng g-1 ww	32 ng g-1 ww and 25 ng g-1 ww	59 ng g-1 ww and 41 ng g-1 ww	66 ng g-1 ww and 56 ng g-1 ww	59 ng g-1 ww and 78 ng g-1 ww	Uptake rate constant kU (rainbow trout): 0.090 L kg^–1 h^–1; Uptake rate constant kU (rainbow trout; [2]): 0.169 L/kg/h; Concentration in fish (rainbow trout; exposure phase, 96 h): 62 ng g-1 ww and 67 ng g-1 ww; Uptake rate constant kU (rainbow trout; [3]): 0.090 (0.074–0.110) L kg^–1 ww h^–1; BCF (kinetic) (rainbow trout; [4]): 1.42 (1.22–1.66) L kg^–1 ww; BCF (rainbow trout; [5]): 1.37 (14) L kg-1 ww; Uptake rate constant kU (rainbow trout; [5]): 0.088 (9) L kg-1 ww h-1; BCF (rainbow trout; own values): 1.42 L kg^–1; diffusion coefficient (D) in the epithelial membrane of the gills (rainbow trout; solved from eq 3 with kU, DMLW, gill area, fish 0.024 kg, membrane density 1 kg L^–1): 9.3 × 10^–9 m h^–1; log DMW, membrane-water distribution ratio [1]: 4.58; log DMLW [1]: 4.58 ^f L kg^–1
